Data taken from patent US9579347B2, “Methods for enhancing the effect of EGCg on mitigating skeletal muscle loss” (ABBOTT LABORATORIES, priority 2012, dated 2017).

Test system: serum-starved C2C12 myotubes
Test: release of radiolabeled phenylalanine (total protein degradation) from serum-starved C2C12 myotubes
Format: cell-based, murine
Settings: serum-free medium, 24 hours, vs serum (NC) and serum-free (NS) controls
Description: The role of EGCg alone and EGCg in combination with zinc in preventing muscle protein degradation was evaluated in an in vitro cell-based assay using serum-starved C2C12 myotubes, i.e., differentiated, elongated murine myoblasts, which are routinely used to model adult skeletal myofibers in cell culture. This assay measured the release of radiolabeled phenylalanine (Phe) from myotubes in response to a catabolic stimulus. Under normal growth conditions in the presence of growth factors supplied by 2% horse serum, the myotubes actively incorporated the amino acid Phe into newly synthesized muscle proteins. This is shown as the negative control for proteolysis (NC) in lane 1 of FIG. 1, i.e., the serum control. In the absence of the 2% horse serum, specifically C2C12 cultured in a serum-free DMEM medium, the muscle proteins began to break down, and phenylalanine was subsequently released as a free amino acid. This is shown as the serum-free, positive control for proteolysis (NS) in lane 2 of FIG. 1. […] 10 μM EGCg was added to serum-free and serum-starved myotubes alone, i.e., lane 3 of FIG. 1.
The experiment was replicated 2 times where n=6 over the same period of time for each sample, i.e., 24 hours for each sample. Results are expressed as mean±S.E.M and statistical analysis between groups was determined by one-way ANOVA followed by Tukey's test.

O=S(=O)([O-])[O-].[Zn+2] [zinc, zinc sulfate]
total protein degradation (release of radiolabeled Phe) (10 μM zinc sulfate alone, FIG. 2 lane 3): promoted or increased total protein degradation

O=C(O[C@@H]1Cc2c(O)cc(O)cc2O[C@@H]1c1cc(O)c(O)c(O)c1)c1cc(O)c(O)c(O)c1 [EGCg, epigallocatechin gallate]
total protein degradation (release of radiolabeled Phe) (10 μM EGCg alone, FIG. 1 lane 3): greater inhibition of total protein degradation
